Results as given in US10696689B2, “Somatostatin modulators and uses thereof” (CRINETICS PHARMACEUTICALS, INC., priority 2018, dated 2020).

Columns and labels:
[1] = biological target: human SST2 receptor (SSTR2) (Homo sapiens (Human), UniProt P30874); test: cAMP assay: inhibition of cAMP via human SST2 receptor in CHO-K1 cells; type: cell-based; conditions: CHO-K1 cells stably expressing human SSTR2, NKH477 stimulated
Text: (§1) General overview: All five SSTR subtypes are Gi coupled G-protein coupled receptors (GPCRs) that lead to decreases in intracellular cyclic AMP (cAMP) when activated by an agonist. Therefore, measurement of intracellular cAMP levels can be used to assess whether compounds of the invention are agonists of SSTR subtypes (John Kelly, Troy Stevens, W. Joseph Thompson, and Roland Seifert, Current Protocols in Pharmacology, 2005, 2.2.1-2.2). One example of an intracellular cAMP assay is described below.
(§2) Four days prior to the assay, 5,000 Chinese hamster ovary cells (CHO-K1, ATCC # CCL-61) stably expressing the human somatostatin receptor subtype 2 are plated in each well of a 96-well tissue culture-treated plate in Ham's F12 growth media (ThermoFisher #10-080-CM) supplemented with 10% donor bovine serum (Gemini Bio-Products #100-506), 100 U/mL penicillin; 100 ug/mL streptomycin; 2 mM L-glutamine (Gemini Bio-Products #400-110) and 0.2 mg/mL hygromycin B (GoldBio #31282-04-9). The cells are cultured at 37° C., 5% CO2 and 95% humidity. On the day of the assay, the media is aspirated and the cells are treated with 50 μL of 1.6 μM NKH477 (Sigma # N3290) plus various dilutions of compounds of the invention in assay buffer [1× Hank's Balanced Salt Solution (ThermoFisher # SH3058802), 0.5 mM HEPES pH 7.4, 0.1% bovine serum albumin, 0.2 mM 3-Isobutyl-1-methylxanthine (IBMX, VWR #200002-790)]. The cells are incubated for 20 minutes at 37° C. (the final concentration of the compounds of the invention are typically 0-10,000 nM). The cells are treated with 50 μL of lysis buffer (HRTF cAMP kit, Cisbio). The lysate is transferred to 384-well plates and cAMP detection and visualization antibodies are added and incubated for 1-24 hours at room temperature. The time-resolved fluorescent signal is read with a Tecan M1000Pro multiplate reader. The intracellular cAMP concentrations are calculated by regression to a standard curve and are plotted vs. the concentration of the compounds of the invention and the EC50 of the compounds are calculated using standard methods. All data manipulations are in GraphPad Prism v6.

hSSTR2 vs. hSSTR4 = test: Selectivity for inhibition of cAMP via hSSTR2 vs. hSSTR4; type: cell-based, human
Text: as §1, §2

[2] = Liver microsomal stability assay; type: in vitro ADME; conditions: human liver microsomes 0.5 mg/mL, 1 μM compound, 37° C.
Description: The in vitro stabilities of compounds of interest were determined for various species using pooled male and female human, pooled male Sprague-Dawley rat, pooled male Cynomolgus monkey, and pooled male Beagle dog liver microsomes at microsomal protein concentrations of 0.5 mg/mL. Incubations were carried out in a potassium phosphate buffer (50 mM). The NADPH-generating system was composed of NADP+ (1 mM), magnesium chloride (3 mM), EDTA (1 mM), glucose-6-phosphate (5 mM) and glucose-6-phosphate dehydrogenase (1 Unit/mL) for all experiments. Compounds of interest in DMSO were added to achieve a final incubation concentration of 1 μM (final DMSO content was 0.1% v/v and final acetonitrile content was 0.9%). The final incubation volume was 400 μL. Incubations were conducted at 37° C. for 0, 5, 10, 20, 40 and 60 minutes in a shaking water bath and terminated by removing 50 μL of incubation mixture and adding to 100 μL of ice cold acetonitrile containing internal standard. Following precipitation by centrifugation at 3500 rpm and 4° C. for 30 minutes, compounds of interest and internal standard were analyzed in the resultant supernatant using a multiple reaction monitoring (MRM) LC-MS/MS method. MS conditions were optimized for each analyte.
The following Table (Table D) illustrates human liver microsomal stability of exemplary compounds.

human SST2 receptor (SSTR2), sequence (P30874 whole entry): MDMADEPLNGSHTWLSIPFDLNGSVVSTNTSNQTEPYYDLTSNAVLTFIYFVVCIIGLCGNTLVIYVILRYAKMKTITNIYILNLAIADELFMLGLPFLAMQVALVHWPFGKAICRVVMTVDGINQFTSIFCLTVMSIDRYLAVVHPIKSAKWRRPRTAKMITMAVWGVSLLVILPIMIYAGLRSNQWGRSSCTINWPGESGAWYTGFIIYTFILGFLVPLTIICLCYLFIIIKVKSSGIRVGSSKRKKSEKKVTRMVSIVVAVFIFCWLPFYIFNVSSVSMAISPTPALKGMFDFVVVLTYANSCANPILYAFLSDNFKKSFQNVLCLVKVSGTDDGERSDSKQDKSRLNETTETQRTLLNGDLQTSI

| Structure (SMILES) | EC50 [1] | HLM t1/2 [2] | hSST4/hSST2 (ratio) (hSSTR2 vs. hSSTR4; Table C) | hSST4/hSST2 (ratio) (hSSTR2 vs. hSSTR4; Table B) |
| --- | --- | --- | --- | --- |
| N#Cc1cc(F)c2nc(-c3c(N)ncc(-c4cc(F)cc(F)c4)c3N3CC[C@@H]4OCCN[C@H]4C3)[nH]c2c1 [Compound 3-19, 2-{4-[(4αS,8αS)-octahydro-1H-pyrido[3,4-b][1,4]oxazin-6-yl]-2-amino-5-(3,5-difluorophenyl)pyridin-3-yl}-4-fluoro-1H-1,3-benzodiazole-6-carbonitrile] | 0.1 to 1 nM | 5.78 h | b (b = bewteen 15 and 50;) |  |
| Nc1ncc(-c2cccc(F)c2)c(N2CC[C@@H]3NCCO[C@H]3C2)c1-c1nc2c(F)cc(F)cc2[nH]1 [Compound 3-3, 4-[(4αS,8αS)-octahydro-1H-pyrido[3,4-b][1,4]oxazin-6-yl]-3-(4,6-difluoro-1H-1,3-benzodiazol-2-yl)-5-(3-fluorophenyl)pyridin-2-amine] | 0.1 to 1 nM | 3.85 h | c (c = between 2.5 and 15;) |  |
| CNc1ncc(-c2cc(F)cc(Cl)c2)c(N2CC[C@@H]3NCCO[C@H]3C2)c1-c1nc2c(OC)cc(F)cc2[nH]1 [Compound 3-13, 4-[(4αS,8αS)-octahydro-1H-pyrido[3,4-b][1,4]oxazin-6-yl]-5-(3-chloro-5-fluorophenyl)-3-(6-fluoro-4-methoxy-1H-1,3-benzodiazol-2-yl)-N-methylpyridin-2-amine] | 0.1 to 1 nM |  | a (a = above 50,) |  |
| CNc1ncc(-c2cccc(F)c2)c(N2CC[C@@H]3NCCO[C@H]3C2)c1-c1nc2c(OC)cc(F)cc2[nH]1 [Compound 3-10, 4-[(4αS,8αS)-octahydro-1H-pyrido[3,4-b][1,4]oxazin-6-yl]-3-(6-fluoro-4-methoxy-1H-1,3-benzodiazol-2-yl)-5-(3-fluorophenyl)-N-methylpyridin-2-amine] | 0.1 to 1 nM |  | a (a = above 50,) |  |
| CNc1ncc(-c2cccc(F)c2)c(N2CC[C@@H]3NCCO[C@H]3C2)c1-c1nc2c(OC)cc(C#N)cc2[nH]1 [Compound 3-12, 2-{4-[(4αS,8αS)-octahydro-1H-pyrido[3,4-b][1,4]oxazin-6-yl]-5-(3-fluorophenyl)-2-(methylamino)pyridin-3-yl}-4-methoxy-1H-1,3-benzodiazole-6-carbonitrile] | ≥ 1 nM |  | a (a = above 50,) |  |
| COc1cc(F)cc2[nH]c(-c3c(N)ncc(-c4cc(F)cc(Cl)c4)c3N3CC[C@@H]4OCCN[C@H]4C3)nc12 [Compound 3-17, 4-[(4αS,8αS)-octahydro-1H-pyrido[3,4-b][1,4]oxazin-6-yl]-5-(3-chloro-5-fluorophenyl)-3-(6-fluoro-4-methoxy-1H-1,3-benzodiazol-2-yl)pyridin-2-amine] | < 0.1 nM |  | c (c = between 2.5 and 15;) |  |
| COc1cc(F)cc2[nH]c(-c3c(N)ncc(-c4cccc(F)c4)c3N3CC[C@@H]4NCCO[C@H]4C3)nc12 [Compound 3-9, 4-[(4αS,8αS)-octahydro-1H-pyrido[3,4-b][1,4]oxazin-6-yl]-3-(6-fluoro-4-methoxy-1H-1,3-benzodiazol-2-yl)-5-(3-fluorophenyl)pyridin-2-amine] | 0.1 to 1 nM |  | c (c = between 2.5 and 15;) |  |

Now from value to compound, other results behind:

| EC50 [1] | HLM t1/2 [2] | Structure (SMILES) | hSST4/hSST2 (ratio) (hSSTR2 vs. hSSTR4; Table C) | hSST4/hSST2 (ratio) (hSSTR2 vs. hSSTR4; Table B) |
| --- | --- | --- | --- | --- |
| 0.1 to 1 nM | >11.6 h | COc1cc(C#N)cc2[nH]c(-c3c(N)ncc(-c4cccc(F)c4)c3N3CC[C@@H]4NCCO[C@H]4C3)nc12 [Compound 3-11, 2-{4-[(4αS, 8αS)-octahydro-1H-pyrido[3,4-b][1,4]oxazin-6-yl]-2-amino-5-(3-fluorophenyl)pyridin-3-yl}-4-methoxy-1H-1,3-benzodiazole-6-carbonitrile] | a (a = above 50,) |  |
| 0.1 to 1 nM |  | COC(=O)c1ncc(-c2cc(C)cc(F)c2)c(N2CCC(N)CC2)c1-c1nc2cc(F)cc(OC)c2[nH]1 [Compound 2-1, methyl 4-(4-aminopiperidin-1-yl)-3-(6-fluoro-4-methoxy-1H-1,3-benzodiazol-2-yl)-5-(3-fluoro-5-methylphenyl)pyridine-2-carboxylate] |  | d (d = between 1 and 2.5;) |
| < 0.1 nM |  | COc1cc(C#N)cc2[nH]c(-c3c(N)ncc(-c4cc(C)cc(F)c4)c3N3CCC(N)CC3)nc12 [Compound 1-1, 2-[2-amino-4-(4-aminopiperidin-1-yl)-5-(3-fluoro-5-methylphenyl)pyridin-3-yl]-4-methoxy-1H-1,3-benzodiazole-6-carbonitrile] |  | a (a = above 50,) |
| 0.1 to 1 nM | 1.65 h | COc1cc(C#N)cc2[nH]c(-c3c(N)ncc(-c4cc(F)cc(F)c4)c3N3CC[C@@H]4NCCO[C@H]4C3)nc12 [Compound 3-18, 2-{4-[(4αS,8αS)-octahydro-1H-pyrido[3,4-b][1,4]oxazin-6-yl]-2-amino-5-(3,5-difluorophenyl)pyridin-3-yl}-4-methoxy-1H-1,3-benzodiazole-6-carbonitrile] | b (b = bewteen 15 and 50;) |  |
| 0.1 to 1 nM |  | COc1cc(C#N)cc2[nH]c(-c3c(N)ncc(-c4cc(F)cc(Cl)c4)c3N3CCC(N)CC3)nc12 [Compound 1-2, 2-[2-amino-4-(4-aminopiperidin-1-yl)-5-(3-chloro-5-fluorophenyl)pyridin-3-yl]-4-methoxy-1H-1,3-benzodiazole-6-carbonitrile] |  |  |
